In ChEMBL document CHEMBL6182927, “Heparan Sulfate-Based Neoproteoglycan for Targeted Lysosomal Degradation of Amyloid-β” (J Med Chem, 2025):
Activity calls are given as the source filed them. The rule behind the calls is not given here.

Columns and labels:
MDA-MB-468 [1] = assay: Protection against amyloid beta-induced cytotoxicity in human MDA-MB-468 cells at 0.5 uM by MTT assay; format: functional, cell-based
MDA-MB-468 [2] = assay: Induction of amyloid beta (1 to 42) degradation in lysosome of human MDA-MB-468 cells assessed as decrease in fluorescence signal at 1 uM incubated for 48 to 72 hrs by FITC based flow cytometry analysis; format: subcellular; conditions: time 48-72 hrs
[3] = biological target: T1, Amyloid-beta precursor protein (Homo sapiens, UniProt P05067); assay: Binding affinity to amyloid beta (1 to 42) (unknown origin) assessed as dissociation constant by SPR analysis
[4] = biological target: T1, Amyloid-beta precursor protein; assay: Binding affinity to amyloid beta (1 to 42) (unknown origin) assessed as binding constant K(off) by SPR analysis
[5] = biological target: T1, Amyloid-beta precursor protein; assay: Binding affinity to amyloid beta (1 to 42) (unknown origin) assessed as binding constant K(on) by SPR analysis

T1 sequence (P05067 whole entry): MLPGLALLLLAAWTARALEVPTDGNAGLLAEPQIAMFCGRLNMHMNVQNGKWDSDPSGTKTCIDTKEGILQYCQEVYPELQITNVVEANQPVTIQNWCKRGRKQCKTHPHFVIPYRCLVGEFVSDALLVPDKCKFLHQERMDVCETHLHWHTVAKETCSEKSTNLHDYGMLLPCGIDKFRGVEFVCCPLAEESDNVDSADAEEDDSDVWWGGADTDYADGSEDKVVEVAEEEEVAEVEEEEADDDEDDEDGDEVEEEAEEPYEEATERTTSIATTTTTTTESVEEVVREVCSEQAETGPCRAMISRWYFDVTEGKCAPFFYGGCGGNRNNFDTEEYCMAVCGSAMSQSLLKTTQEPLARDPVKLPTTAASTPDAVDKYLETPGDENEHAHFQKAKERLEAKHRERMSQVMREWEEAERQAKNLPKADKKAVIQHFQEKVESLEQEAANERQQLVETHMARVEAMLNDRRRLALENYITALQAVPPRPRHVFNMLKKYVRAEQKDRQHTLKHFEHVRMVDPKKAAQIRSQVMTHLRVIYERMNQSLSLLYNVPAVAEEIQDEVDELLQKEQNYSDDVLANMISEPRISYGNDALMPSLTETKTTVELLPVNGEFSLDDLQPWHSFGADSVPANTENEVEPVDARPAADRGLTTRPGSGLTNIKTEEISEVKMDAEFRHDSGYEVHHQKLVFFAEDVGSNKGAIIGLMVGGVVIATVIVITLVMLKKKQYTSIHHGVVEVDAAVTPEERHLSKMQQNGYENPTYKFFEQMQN

SMILES	Activity (MDA-MB-468 [1])	Activity (MDA-MB-468 [2])	Kd [3] [nM]	K [4]	K [5]
CC(C)CCC[C@@H](C)[C@H]1CC[C@H]2[C@@H]3CC=C4C[C@@H](OCCC(=O)NCCOCCOCCNC(=O)CCC(=O)N5Cc6ccccc6-c6c(nnn6CCC[C@H](NC(=O)[C@H](CCCCNC(=O)CCn6nnc7c6-c6ccccc6CN(C(=O)CCC(=O)NCCCO[C@@H]6O[C@@H](C(=O)O)[C@@H](O[C@H]8O[C@H](COS(=O)(=O)O)[C@@H](O[C@@H]9O[C@@H](C(=O)O)[C@@H](O[C@H]%10O[C@H](COS(=O)(=O)O)[C@@H](O[C@@H]%11O[C@@H](C(=O)O)[C@@H](O[C@H]%12O[C@H](COS(=O)(=O)O)[C@@H](O)[C@H](O)[C@H]%12NS(=O)(=O)O)[C@H](O)[C@H]%11OS(=O)(=O)O)[C@H](O)[C@H]%10NS(=O)(=O)O)[C@H](O)[C@H]9OS(=O)(=O)O)[C@H](O)[C@H]8NS(=O)(=O)O)[C@H](O)[C@H]6OS(=O)(=O)O)c6ccccc6-7)NC(=O)[C@H](CCCCNC(=O)CCn6nnc7c6-c6ccccc6CN(C(=O)CCC(=O)NCCCO[C@@H]6O[C@@H](C(=O)O)[C@@H](O[C@H]8O[C@H](COS(=O)(=O)O)[C@@H](O[C@@H]9O[C@@H](C(=O)O)[C@@H](O[C@H]%10O[C@H](COS(=O)(=O)O)[C@@H](O[C@@H]%11O[C@@H](C(=O)O)[C@@H](O[C@H]%12O[C@H](COS(=O)(=O)O)[C@@H](O)[C@H](O)[C@H]%12NS(=O)(=O)O)[C@H](O)[C@H]%11OS(=O)(=O)O)[C@H](O)[C@H]%10NS(=O)(=O)O)[C@H](O)[C@H]9OS(=O)(=O)O)[C@H](O)[C@H]8NS(=O)(=O)O)[C@H](O)[C@H]6OS(=O)(=O)O)c6ccccc6-7)NC(=O)[C@H](CCCCNC(=O)CCn6nnc7c6-c6ccccc6CN(C(=O)CCC(=O)NCCCO[C@@H]6O[C@@H](C(=O)O)[C@@H](O[C@H]8O[C@H](COS(=O)(=O)O)[C@@H](O[C@@H]9O[C@@H](C(=O)O)[C@@H](O[C@H]%10O[C@H](COS(=O)(=O)O)[C@@H](O[C@@H]%11O[C@@H](C(=O)O)[C@@H](O[C@H]%12O[C@H](COS(=O)(=O)O)[C@@H](O)[C@H](O)[C@H]%12NS(=O)(=O)O)[C@H](O)[C@H]%11OS(=O)(=O)O)[C@H](O)[C@H]%10NS(=O)(=O)O)[C@H](O)[C@H]9OS(=O)(=O)O)[C@H](O)[C@H]8NS(=O)(=O)O)[C@H](O)[C@H]6OS(=O)(=O)O)c6ccccc6-7)NC(=O)[C@H](CCCCNC(=O)CCn6nnc7c6-c6ccccc6CN(C(=O)CCC(=O)NCCCO[C@@H]6O[C@@H](C(=O)O)[C@@H](O[C@H]8O[C@H](COS(=O)(=O)O)[C@@H](O[C@@H]9O[C@@H](C(=O)O)[C@@H](O[C@H]%10O[C@H](COS(=O)(=O)O)[C@@H](O[C@@H]%11O[C@@H](C(=O)O)[C@@H](O[C@H]%12O[C@H](COS(=O)(=O)O)[C@@H](O)[C@H](O)[C@H]%12NS(=O)(=O)O)[C@H](O)[C@H]%11OS(=O)(=O)O)[C@H](O)[C@H]%10NS(=O)(=O)O)[C@H](O)[C@H]9OS(=O)(=O)O)[C@H](O)[C@H]8NS(=O)(=O)O)[C@H](O)[C@H]6OS(=O)(=O)O)c6ccccc6-7)NC(=O)[C@H](CCCCNC(=O)CCn6nnc7c6-c6ccccc6CN(C(=O)CCC(=O)NCCCO[C@@H]6O[C@@H](C(=O)O)[C@@H](O[C@H]8O[C@H](COS(=O)(=O)O)[C@@H](O[C@@H]9O[C@@H](C(=O)O)[C@@H](O[C@H]%10O[C@H](COS(=O)(=O)O)[C@@H](O[C@@H]%11O[C@@H](C(=O)O)[C@@H](O[C@H]%12O[C@H](COS(=O)(=O)O)[C@@H](O)[C@H](O)[C@H]%12NS(=O)(=O)O)[C@H](O)[C@H]%11OS(=O)(=O)O)[C@H](O)[C@H]%10NS(=O)(=O)O)[C@H](O)[C@H]9OS(=O)(=O)O)[C@H](O)[C@H]8NS(=O)(=O)O)[C@H](O)[C@H]6OS(=O)(=O)O)c6ccccc6-7)NC(=O)[C@H](C)NC(=O)CCCCC[N+]6=C(/C=C/C=C/C=C7\N(C)c8ccccc8C7(C)C)C(C)(C)c7ccccc76)C(N)=O)-c6ccccc65)CC[C@]4(C)[C@H]3CC[C@]12C	Active	Active			
NCCCO[C@@H]1O[C@@H](C(=O)O)[C@@H](O[C@H]2O[C@H](COS(=O)(=O)O)[C@@H](O[C@@H]3O[C@@H](C(=O)O)[C@@H](O[C@H]4O[C@H](COS(=O)(=O)O)[C@@H](O[C@@H]5O[C@@H](C(=O)O)[C@@H](O[C@H]6O[C@H](COS(=O)(=O)O)[C@@H](O)[C@H](O)[C@H]6NS(=O)(=O)O)[C@H](O)[C@H]5OS(=O)(=O)O)[C@H](O)[C@H]4NS(=O)(=O)O)[C@H](O)[C@H]3OS(=O)(=O)O)[C@H](O)[C@H]2NS(=O)(=O)O)[C@H](O)[C@H]1OS(=O)(=O)O			90.3	2.23 10^-2/s	2.47 10^5/Ms
NCCOCCO[C@@H]1O[C@@H](COS(=O)(=O)O)[C@@H](O[C@@H]2O[C@@H](COS(=O)(=O)O)[C@@H](O[C@@H]3O[C@@H](COS(=O)(=O)O)[C@@H](O[C@@H]4O[C@@H](COS(=O)(=O)O)[C@@H](OS(=O)(=O)O)[C@H](O)[C@H]4OS(=O)(=O)O)[C@H](O)[C@H]3OS(=O)(=O)O)[C@H](O)[C@H]2OS(=O)(=O)O)[C@H](O)[C@H]1OS(=O)(=O)O			90.2	2.21 10^-2/s	2.45 10^5/Ms
